Results: US11096940B2, “Treatment of hepatocellular carcinoma characterized by hepatitis B virus infection” (Celgene Corporation, priority 2017, dated 2021)
Entries after “also recorded” stand apart in the source; their conditions may differ.

Experiments:
Format in all cases: in vivo, human
[1] = tested on: subjects with various hematologic or solid malignancies; assay: Phase 1/2 clinical study Part A, dose escalation (MTD determination); conditions: oral
Protocol: The study was designed as a Phase 1/2 trial consisting of two parts: dose escalation (Part A) and dose expansion (Part B).
Part A was an open-label, dose-escalating study of subjects with various hematologic or solid malignancies. The primary objectives were to determine the maximum tolerated dose (MTD) and the preliminary PK of Compound 1. The MTD of Compound 1 was determined to be 45 mg/day, and the nontolerated dose (NTD) was determined to be 60 mg/day. The PK and PD data supported once daily dosing with Compound 1.

[2] = tested on: subjects with HCC; assay: Phase 1/2 clinical study Part B, dose expansion: efficacy (RECIST response, OS, PFS) in HCC subjects
Source text: Part B, the preliminary efficacy-seeking phase, was an open-label, dose-expansion study, which involved subjects with HCC.
(§1) Subjects received continuous daily dosing of Compound 1 in 28-day cycles (FIG. 1). Therapy was discontinued if there was evidence of disease progression, but subjects continued to receive Compound 1 as long as the investigator considered that the subjects derived benefit from treatment. Therapy was discontinued if there was unacceptable toxicity or if the subject decided to withdraw from the study. Subjects were contacted 28 days after the last dose of study drug to assess the status of adverse events (AEs) and to determine whether any new events or death had occurred. In addition to those subjects who had died on study, approximately 28 subjects were consented for follow-up every 2 months (±1 week) after completing the treatment phase in order to determine their date of death and complete an overall survival analysis.
Accordingly to the original protocol of Part B, 25 HCC patients started treatment of Compound 1 at 45 mg/day. After the protocol Amendment 9, 28 new HCC subjects in an additional cohort were started at 30 mg/day. The appropriateness of the 30 mg/day dose was supported by the PK and PD data from Part A. Compound 1 was administered orally, in an uninterrupted once daily schedule with no rest period between each 28-day cycle. Subjects continued to receive Compound 1 for as long as they derived benefit from treatment as judged by the investigator.
All efficacy analyses were based on both the TP and EE Population. Subjects were evaluated for efficacy during Cycles 2, 4, 6, and every 3 months after Cycle 6. The primary efficacy variable was response rate. Efficacy endpoints for HCC matured once all enrolled subjects had withdrawn from the study.
Tumor response for HCC was based on investigator's overall evaluation with RECIST. Response rate was determined by a best overall response of either CR or PR. Disease control rate (DCR) included CR, PR, and SD.
OS was defined as the time from first dose to death. All deaths, regardless of the cause of death, were included. Subjects who had not died were censored at the last contact date when the subject was known to be alive or the clinical cut-off date, whichever was earlier.
Median of OS times were calculated using the Kaplan-Meier method and the corresponding 95% CIs were presented.

[3] = PK analysis: plasma concentration in HCC patients by HBV status; conditions: after oral Compound 1, first treatment cycle; FIGS. 3A, 3B
Protocol: The PK profiles of Compound 1 and its metabolite M1 were determined from serial blood and urine collections during the first treatment cycle. Plasma and urine Compound 1 and M1 were measured using validated chiral liquid chromatography-mass spectrometry methods. The lower limit of quantification (LLOQ) in plasma was 1.00 or 2.00 ng/mL for Compound 1 and 10.0 ng/mL for M1. The LLOQ in urine was 5.00 ng/mL for Compound 1 and 20 ng/mL for M1. […]

[4] = tested on: alpha-fetoprotein (AFP); assay: Assessment of AFP in HCC patients; conditions: two HBV positive HCC patients with PR (FIG. 10)
Protocol: For the HCC subjects, baseline and change from baseline in AFP and HBV viral load (HBsAg positive subjects only) were summarized with descriptive statistics. In addition, a Wilcoxon's signed rank test was conducted to analyze change from baseline in AFP at selected scheduled visits. The p-values of such tests were provided. Change from baseline in HBV viral load was analyzed similarly. The percentage of subjects with a >50% decline from baseline in AFP was summarized for the TP.

[5] = Phase 1/2 clinical study Part B: safety and tolerability in HCC subjects; conditions: subjects with HCC
Source text: The primary objectives for Part B were (a) to determine the safety and tolerability of Compound 1 when administered orally and (b) to determine the preliminary PK of Compound 1 following both single and multiple oral dosing of Compound 1.
as §1

CO[C@H]1CC[C@H](N2C(=O)CNc3ncc(-c4ccc(C(C)(C)O)nc4)nc32)CC1 [Compound 1, 7-(6-(2-hydroxypropan-2-yl)pyridin-3-yl)-1-((trans)-4-methoxycyclohexyl)-3,4-dihydropyrazino[2,3-b]pyrazin-2(1H)-one]
maximum tolerated dose (MTD) [1]: 45 mg/day
nontolerated dose (NTD) [1]: 60 mg/day
DCR ([2]; EE Population): 68.3%
ORR ([2]; EE Population): 7.3%
rate of tumor regression relative to pretreatment ([2]; EE Population): 56.1%
median OS ([2]; HBV infected HCC patients): 12.07 months
ORR ([2]; HBV negative subgroups): 0%
disease control rate (DCR) ([2]; HBV negative subjects): 43.9%
median OS ([2]; HBV negative subjects): 22.4 weeks
median PFS ([2]; HBV negative subjects): 14.4 weeks
target tumor shrinkage rate ([2]; HBV negative subjects): 39.0%
ORR ([2]; HBV positive subjects): 25%
disease control rate (DCR) ([2]; HBV positive subjects): 91.7%
median OS ([2]; HBV positive subjects): 52.4 weeks
median PFS ([2]; HBV positive subjects): 14.8 weeks
target tumor shrinkage rate ([2]; HBV positive subjects): 66.7%
complete response (CR) ([2]; HCC TP): No subject experienced a CR
overall response rate (ORR) ([2]; HCC TP): 5.7%
subjects with best response of SD ([2]; HCC TP): 49.1%
number of subjects with >30% regression of target tumor lesion ([2]; HCC cohort, RECIST 1.1 (FIG. 7)): Five
median OS ([2]; HCC cohort, all patients (FIG. 5A)): 6.9 months
median PFS ([2]; HCC cohort, all patients (FIG. 6A)): 16 weeks
number of subjects achieving PR ([2]; HCC cohort, all HBV positive): 3 subjects
median OS ([2]; TP): 30.0 weeks
median PFS ([2]; TP): 3.7 months
disease control rate (DCR) ([2]; all subjects (HCC TP)): 54.7%
rate of target tumor shrinkage (target lesion regression relative to pretreatment) ([2]; all subjects (HCC TP)): 45.3%
median OS ([2]; non-HBV infected HCC patients): 5.16 months
median duration of response (DOR) ([2]; the 3 subjects who reached PR): 124.0 days
median duration of SD ([2]; the 26 subjects with best response of SD): 112.0 days
radiographic response at first on-treatment restaging compared to baseline ([2]; two HBV infected HCC patients, Patient A and Patient B (FIG. 9)): regression of intrathoracic metastases; also recorded: intrahepatic tumor regression
plasma exposure in HBV infected HCC patients (n=12) versus non-HBV infected HCC patients (n=39) [3]: comparable to the exposure observed in non-HBV infected HCC patients
AFP on treatment compared to baseline [4]: early clinically significant, marked reduction of AFP
tolerability [5]: well tolerated
